Measurements: the supplement of paper PMC11208160

Test: recombinant barcode read abundance after kanamycin selection (control-corrected) (log10(CPM+1)); higher = more efficient recombination; sequences stand for … in AGTGCAGAGAAAATCGGCCAGTTTTCTCTGCCTGCAGTCCGCATGCCGT…AGATTTATGCAGCGGACTGCCTTTCTCCCAAAGTGATAAACCGGACAGTATCATGGACCGGTTTTCCCGGTAATCCGTATTTGCAAGGTTGGTTTCACT; site = the 11-nt target
In short: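 Targets and IS621 bridge RNA target-binding loops were paired in oligos, each with a promoter, a barcode and the J23119-driven first 104 bridge RNA bases. A vector carrying the remaining 73 bp and a T7-inducible recombinase received these by Gibson cloning, and the pool was co-electroporated into E. coli with a donor plasmid. Duplicate plates contained chloramphenicol/ampicillin LB agar (control) or chloramphenicol/ampicillin/kanamycin with 0.1 mM IPTG. Recombination efficiency comes from averaged, control-corrected counts per million of recombinant-junction barcodes, reported as log10(CPM+1).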
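Further: IS621 recombinase and bridge RNA in Escherichia coli cells.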

Row | Sequence | recombinant barcode read abundance (log10)
1 | GGGAACACTTGGGTTCTAACCTGTTGCCA (site GGGAACACTTG) | 1.74
2 | GGGAACACTTGGGTTCTAACCTGTTGCCA (site GGGCACACTTG) | 0.11
3 | GGGAACCCTTGGGTTCTAACCTGTTGCAT (site AGGAACTCTAT) | 0.115
4 | GGGAACCCTTGGGTTCTAACCTGTTGCAT (site GGGAACCCTAT) | 1.96
5 | GGGACGACTTGGGTTCTAACCTGTTGCTT (site GGGACGACTAA) | 1.04
6 | GGGACGACTTGGGTTCTAACCTGTTGCTT (site GGGACGACTTA) | 0.0442
7 | GGGACTACTTGGGTTCTAACCTGTTGCCG (site ACTCGCTCTGT) | 0.0845
8 | GGGACTACTTGGGTTCTAACCTGTTGCCG (site GGGACTACTCG) | 0.876
9 | GGGATCCCTTGGGTTCTAACCTGTTGCGG (site CTCGAATCTAA) | 0.024
10 | GGGATCCCTTGGGTTCTAACCTGTTGCGG (site GGGATCCCTCC) | 2
11 | GGGCAGTCTTGGGTTCTAACCTGTTGCCG (site GGGCAGTCTCG) | 1.78
12 | GGGCAGTCTTGGGTTCTAACCTGTTGCCG (site GGGGCGTCTCG) | 0.14
13 | GGGCCCGCTTGGGTTCTAACCTGTTGCCT (site GGGCCCGCTAG) | 1.84
14 | GGGCCCGCTTGGGTTCTAACCTGTTGCCT (site GGGCCTGCTAG) | 0.154
15 | GGGCCTGCTTGGGTTCTAACCTGTTGCCT (site GGGCCCGCTAG) | 0.645
16 | GGGCCTGCTTGGGTTCTAACCTGTTGCCT (site GGGCCTGCTAG) | 2.1
17 | GGGGAAGCTTGGGTTCTAACCTGTTGCCT (site GAGGAAGCTAG) | 0.276
18 | GGGGAAGCTTGGGTTCTAACCTGTTGCCT (site GCGGAAGCTAG) | 0.343
19 | GGGGAAGCTTGGGTTCTAACCTGTTGCCT (site GGGGAAGCTAG) | 1.73
20 | GGGGAAGCTTGGGTTCTAACCTGTTGCCT (site GTGGAAGCTAG) | 0.291
21 | GGGGATCCTTGGGTTCTAACCTGTTGCGA (site GGGGAGCCTCC) | 0.00823
22 | GGGGATCCTTGGGTTCTAACCTGTTGCGA (site GGGGATCCTTC) | 2.06

Row | Sequence | recombinant barcode read abundance (log10)
23 | GGGGATTCTTGGGTTCTAACCTGTTGCCT (site GGGGATTCTAG) | 2.05
24 | GGGGATTCTTGGGTTCTAACCTGTTGCCT (site GTGGATGCTAG) | 0.0823
25 | GGGGCCTCTTGGGTTCTAACCTGTTGCAA (site AGGGCCTCTCT) | 0.474
26 | GGGGCCTCTTGGGTTCTAACCTGTTGCAA (site GGGGCCTCTTT) | 2.56
27 | GGGGCCTCTTGGGTTCTAACCTGTTGCTG (site GGAGCCTCTGA) | 0.0595
28 | GGGGCCTCTTGGGTTCTAACCTGTTGCTG (site GGGGCCTCTCA) | 3.02
29 | GGGGCTACTTGGGTTCTAACCTGTTGCAC (site GGGGCTACTAG) | 0.58
30 | GGGGCTACTTGGGTTCTAACCTGTTGCAC (site GGGGCTACTGT) | 2.62
31 | GGGGCTTCTTGGGTTCTAACCTGTTGCTT (site GGGGCATCTAA) | 0.129
32 | GGGGCTTCTTGGGTTCTAACCTGTTGCTT (site GGGGCCTCTAA) | 0.762
33 | GGGGCTTCTTGGGTTCTAACCTGTTGCTT (site GGGGCGTCTAA) | 0.343
34 | GGGGCTTCTTGGGTTCTAACCTGTTGCTT (site GGGGCTTCTAA) | 0.913
35 | GGGGTAACTTGGGTTCTAACCTGTTGCCT (site GGGACAACTAG) | 0.0486
36 | GGGGTAACTTGGGTTCTAACCTGTTGCCT (site GGGGTAACTAG) | 0.58
37 | GGGGTCCCTTGGGTTCTAACCTGTTGCCA (site GAGATCCCTTG) | 0.247
38 | GGGGTCCCTTGGGTTCTAACCTGTTGCCA (site GGGGTCCCTTG) | 1.8
39 | GGGTACACTTGGGTTCTAACCTGTTGCTA (site AGGTAGACTTA) | 0.0922
40 | GGGTACACTTGGGTTCTAACCTGTTGCTA (site GGGTACACTTA) | 2.12
41 | GGGTACCCTTGGGTTCTAACCTGTTGCCT (site GAGTACCCTAG) | 0.584
42 | GGGTACCCTTGGGTTCTAACCTGTTGCCT (site GCGTACCCTAG) | 0.126
43 | GGGTACCCTTGGGTTCTAACCTGTTGCCT (site GGGTACCCTAG) | 1.99
44 | GGGTACCCTTGGGTTCTAACCTGTTGCCT (site GTGTACCCTAG) | 0.133

Row | Sequence | recombinant barcode read abundance (log10)
45 | GGGTCGGCTTGGGTTCTAACCTGTTGCGC (site GGGTCGGCTAC) | 0.0769
46 | GGGTCGGCTTGGGTTCTAACCTGTTGCGC (site GGGTCGGCTCC) | 0.0276
47 | GGGTCGGCTTGGGTTCTAACCTGTTGCGC (site GGGTCGGCTGC) | 1.88
48 | GGGTCGGCTTGGGTTCTAACCTGTTGCGC (site GGGTCGGCTTC) | 0.0981
49 | GGGTCGGCTTGGGTTCTAACCTGTTGCGG (site GGGTCGGCTAC) | 0.147
50 | GGGTCGGCTTGGGTTCTAACCTGTTGCGG (site GGGTCGGCTCC) | 2.44
51 | GGGTCGGCTTGGGTTCTAACCTGTTGCGG (site GGGTCGGCTGC) | 0.0285
52 | GGGTCGGCTTGGGTTCTAACCTGTTGCGG (site GGGTCGGCTTC) | 0.609
53 | GGGTCGGCTTGGGTTCTAACCTGTTGCTG (site GGGTCGGCTCA) | 1.91
54 | GGGTCGGCTTGGGTTCTAACCTGTTGCTG (site GTCTCGGCTCA) | 0.0584
55 | GGTAAATCTTGGGTTCTAACCTGTTGCCT (site GGTAAATCTAG) | 0.459
56 | GGTAAATCTTGGGTTCTAACCTGTTGCCT (site GGTAAGTCTAG) | 0.359
57 | GGTAACCCTTGGGTTCTAACCTGTTGCGG (site GGTAACCCTCC) | 2.24
58 | GGTAACCCTTGGGTTCTAACCTGTTGCGG (site GGTCACCCTCC) | 0.0921
59 | GGTAACCCTTGGGTTCTAACCTGTTGCGG (site GGTGACCCTCC) | 0.106
60 | GGTAACCCTTGGGTTCTAACCTGTTGCGG (site GGTTACCCTCC) | 0.425
61 | GGTAAGACTTGGGTTCTAACCTGTTGCGG (site GCTAAGACTCA) | 0.0264
62 | GGTAAGACTTGGGTTCTAACCTGTTGCGG (site GGTAAGACTCC) | 1.64
63 | GGTACTCCTTGGGTTCTAACCTGTTGCGT (site GGTACGCCTAC) | 0.18
64 | GGTACTCCTTGGGTTCTAACCTGTTGCGT (site GGTACTCCTAC) | 0.913
65 | GGTAGGACTTGGGTTCTAACCTGTTGCGG (site AGTAGGCCTCC) | 0.0127
66 | GGTAGGACTTGGGTTCTAACCTGTTGCGG (site GGTAGGACTCC) | 2
